# Earlier results, collected in PubChem BioAssay AID1259409 (Chemical Carcinogenesis Research Information System (CCRIS), 2018).
# Test system: rodent chemically induced tumor inhibition, incidence and multiplicity
# Assay: CCRIS tumor inhibitor studies
# Settings: for tumour outcome (control, treated, inhibition, significance): Promoter: NONE USED
smiles,measurement,setting,value
S=C=NCc1ccccc1,"tumour outcome (control, treated, inhibition, significance)","Carcinogen: 7,12-DIMETHYLBENZ[A]ANTHRACENE, 57-97-6, Dose [Inhibitor]: 50 MG ONCE 4 HR BEFORE DMBA TREATMENT (STUDY DURATION: 18 WK), Route [Inhibitor]: INTRAGASTRIC, Species: RAT, Strain/Sex: SPRAGUE-DAWLEY/FEMALE, Target Tissue: Type of Lesion: MAMMARY GLAND: TUMOR, Dose [Carcinogen]: 12 MG IN 1 ML OLIVE OIL AT AGE 7 WK 4 HR BEFORE AGENT TREATMENT","100%, 14%, 86%, p<0.001"
same,"tumour outcome (control, treated, inhibition, significance)","Carcinogen: 7,12-DIMETHYLBENZ[A]ANTHRACENE, 57-97-6, Dose [Inhibitor]: 50 MG ONCE 24 HR BEFORE DMBA TREATMENT (STUDY DURATION: 18 WK), Route [Inhibitor]: INTRAGASTRIC, Species: RAT, Strain/Sex: SPRAGUE-DAWLEY/FEMALE, Target Tissue: Type of Lesion: MAMMARY GLAND: TUMOR, Dose [Carcinogen]: 12 MG IN 1 ML OLIVE OIL AT AGE 7 WK 24 HR AFTER AGENT TREATMENT","93%, 71%, 24%, not significant"
same,outcome,"Carcinogen: BENZO[A]PYRENE, 50-32-8, Dose [Inhibitor]: 0, 5 UMOL IN ACETONE 4 HR PRIOR TO CARCINOGEN DOSE (STUDY DURATION: 20 WK), Route [Inhibitor]: DERMAL, Species: MOUSE, Strain/Sex: STRAIN-A/FEMALE, Target Tissue: Type of Lesion: SKIN: TUMOR, Dose [Carcinogen]: 0.1 UMOL IN ACETONE ONCE, Promoter: 12-O-TETRADECANOYLPHORBOL-13-ACETATE, 16561-29-8","70%, 60%, 14%, not significant at 15 wk; 95%, 75%, 21%, not significant at 20 wk"
same,"tumour outcome (control, treated, inhibition, significance)","Carcinogen: BENZO[A]PYRENE, 50-32-8, Dose [Inhibitor]: 0, 6.7 UMOL IN COTTONSEED OIL 15 MIN PRIOR TO CARCINOGEN DOSES 1/2 WK FOR 3 TREATMENTS (STUDY DURATION: 26 WK), Route [Inhibitor]: GAVAGE, Species: MOUSE, Strain/Sex: STRAIN-A/FEMALE, Target Tissue: Type of Lesion: FORESTOMACH: TUMOR, Dose [Carcinogen]: 7.9 UMOL IN COTTONSEED OIL 1/2 WK FOR 3 TREATMENTS","95%, 95%, 0%, not significant"
same,"tumour outcome (control, treated, inhibition, significance)","Carcinogen: BENZO[A]PYRENE, 50-32-8, Dose [Inhibitor]: 0, 6.7 UMOL IN COTTONSEED OIL 15 MIN PRIOR TO CARCINOGEN DOSES 1/2 WK FOR 3 TREATMENTS (STUDY DURATION: 26 WK), Route [Inhibitor]: GAVAGE, Species: MOUSE, Strain/Sex: STRAIN-A/FEMALE, Target Tissue: Type of Lesion: LUNG: TUMOR, Dose [Carcinogen]: 7.9 UMOL IN COTTONSEED OIL 1/2 WK FOR 3 TREATMENTS","95%, 80%, 16%, not significant"
same,"tumour outcome (control, treated, inhibition, significance)","Carcinogen: BENZO[A]PYRENE, 50-32-8, Dose [Inhibitor]: 5 MG/G DIET AT AGE 9 WK SIMULTANEOUSLY WITH CARCINOGEN, 3/WK FOR 6 WK (STUDY DURATION: 20 WK), Route [Inhibitor]: ORAL, Species: MOUSE, Strain/Sex: ICR/FEMALE, Target Tissue: Type of Lesion: FORESTOMACH: TUMOR, Dose [Carcinogen]: 0.3 MG/G DIET AT AGE 9 WK, 3/WK FOR 6 WK","41%, 0%, 100%, p<0.01"
same,"tumour outcome (control, treated, inhibition, significance)","Carcinogen: DIETHYLNITROSAMINE, 55-18-5, Dose [Inhibitor]: 0, 100 PPM IN DIET FOR DURATION OF STUDY BEGINNING 1 WK PRIOR TO CARCINOGEN DOSE (STUDY DURATION: 53 WK), Route [Inhibitor]: ORAL, Species: RAT, Strain/Sex: ACI/MALE, Target Tissue: Type of Lesion: LIVER: HEPATOCELLULAR ADENOMA, Dose [Carcinogen]: 200 MG/KG BW ONCE","10/18 (55%), 1/17 (6%), 89%, p<0.002"
same,"tumour outcome (control, treated, inhibition, significance)","Carcinogen: DIETHYLNITROSAMINE, 55-18-5, Dose [Inhibitor]: 0, 100 PPM IN DIET FOR DURATION OF STUDY BEGINNING 1 WK PRIOR TO CARCINOGEN DOSE (STUDY DURATION: 53 WK), Route [Inhibitor]: ORAL, Species: RAT, Strain/Sex: ACI/MALE, Target Tissue: Type of Lesion: LIVER: HEPATOCELLULAR CARCINOMA, Dose [Carcinogen]: 200 MG/KG BW ONCE","6/18 (33%), 0/17 (0%), 100%, p<0.02"
same,"tumour outcome (control, treated, inhibition, significance)","Carcinogen: METHYLAZOXYMETHANOL ACETATE, 592-62-1, Dose [Inhibitor]: 0, 400 PPM IN DIET FOR 4 WK BEGINNING 1 WK PRIOR TO CARCINOGEN TREATMENT (STUDY DURATION: 49 WK), Route [Inhibitor]: ORAL, Species: RAT, Strain/Sex: ACI/FEMALE, Target Tissue: Type of Lesion: COLON: ADENOMA OR CARCINOMA, Dose [Carcinogen]: 25 MG/KG BW 1/WK FOR 3 WK","15/18 (83%), 9/19 (47%), 43%, p<0.05"
same,"tumour outcome (control, treated, inhibition, significance)","Carcinogen: METHYLAZOXYMETHANOL ACETATE, 592-62-1, Dose [Inhibitor]: 0, 400 PPM IN DIET FOR 46 WK BEGINNING 1 WK POST CARCINOGEN TREATMENT (STUDY DURATION: 49 WK), Route [Inhibitor]: ORAL, Species: RAT, Strain/Sex: ACI/FEMALE, Target Tissue: Type of Lesion: COLON: ADENOMA OR CARCINOMA, Dose [Carcinogen]: 25 MG/KG BW 1/WK FOR 3 WK","15/18 (83%), 17/19 (89%), -7%, not significant"
same,"tumour outcome (control, treated, inhibition, significance)","Carcinogen: METHYLAZOXYMETHANOL ACETATE, 592-62-1, Dose [Inhibitor]: 0, 400 PPM IN DIET FOR 46 WK BEGINNING 1 WK POST CARCINOGEN TREATMENT (STUDY DURATION: 49 WK), Route [Inhibitor]: ORAL, Species: RAT, Strain/Sex: ACI/FEMALE, Target Tissue: Type of Lesion: SMALL INTESTINE: CARCINOMA, Dose [Carcinogen]: 25 MG/KG BW 1/WK FOR 3 WK","10/18 (56%), 10/19 (53%), 5%, not significant"
same,"tumour outcome (control, treated, inhibition, significance)","Carcinogen: N-BUTYL-N-(4-HYDROXYBUTYL)NITROSAMINE (3817-11-6), Dose [Inhibitor]: 0, 10 PPM IN THE DIET FOR 40 WK (STUDY DURATION: 40 WK), Route [Inhibitor]: ORAL, Species: RAT, Strain/Sex: F344/MALE, Target Tissue: Type of Lesion: URINARY BLADDER: CARCINOMA, Dose [Carcinogen]: 50 PPM IN DRINKING WATER FOR 40 WK","19/20 (95%), 18/20 (90%), 5%, not significant"
same,"tumour outcome (control, treated, inhibition, significance)","Carcinogen: N-BUTYL-N-(4-HYDROXYBUTYL)NITROSAMINE (3817-11-6), Dose [Inhibitor]: 0, 10 PPM IN THE DIET FOR 40 WK (STUDY DURATION: 40 WK), Route [Inhibitor]: ORAL, Species: RAT, Strain/Sex: F344/MALE, Target Tissue: Type of Lesion: URINARY BLADDER: PAPILLOMA, Dose [Carcinogen]: 50 PPM IN DRINKING WATER FOR 40 WK","15/20 (75%), 11/20 (55%), 27%, not significant"
same,"tumour outcome (control, treated, inhibition, significance)","Carcinogen: N-BUTYL-N-(4-HYDROXYBUTYL)NITROSAMINE (3817-11-6), Dose [Inhibitor]: 0, 100 PPM IN THE DIET FOR 40 WK (STUDY DURATION: 40 WK), Route [Inhibitor]: ORAL, Species: RAT, Strain/Sex: F344/MALE, Target Tissue: Type of Lesion: URINARY BLADDER: CARCINOMA, Dose [Carcinogen]: 50 PPM IN DRINKING WATER FOR 40 WK","19/20 (95%), 15/20 (75%), 21%, not significant"
same,"tumour outcome (control, treated, inhibition, significance)","Carcinogen: N-BUTYL-N-(4-HYDROXYBUTYL)NITROSAMINE (3817-11-6), Dose [Inhibitor]: 0, 100 PPM IN THE DIET FOR 40 WK (STUDY DURATION: 40 WK), Route [Inhibitor]: ORAL, Species: RAT, Strain/Sex: F344/MALE, Target Tissue: Type of Lesion: URINARY BLADDER: PAPILLOMA, Dose [Carcinogen]: 50 PPM IN DRINKING WATER FOR 40 WK","15/20 (75%), 9/20 (45%), 40%, p< 0.05"
same,"tumour outcome (control, treated, inhibition, significance)","Carcinogen: N-BUTYL-N-(4-HYDROXYBUTYL)NITROSAMINE (3817-11-6), Dose [Inhibitor]: 0, 1000 PPM IN THE DIET FOR 40 WK (STUDY DURATION: 40 WK), Route [Inhibitor]: ORAL, Species: RAT, Strain/Sex: F344/MALE, Target Tissue: Type of Lesion: URINARY BLADDER: CARCINOMA, Dose [Carcinogen]: 50 PPM IN DRINKING WATER FOR 40 WK","19/20 (95%), 5/20 (25%), 74%, p< 0.01"
same,"tumour outcome (control, treated, inhibition, significance)","Carcinogen: N-BUTYL-N-(4-HYDROXYBUTYL)NITROSAMINE (3817-11-6), Dose [Inhibitor]: 0, 1000 PPM IN THE DIET FOR 40 WK (STUDY DURATION: 40 WK), Route [Inhibitor]: ORAL, Species: RAT, Strain/Sex: F344/MALE, Target Tissue: Type of Lesion: URINARY BLADDER: PAPILLOMA, Dose [Carcinogen]: 50 PPM IN DRINKING WATER FOR 40 WK","15/20 (75%), 2/20 (10%), 87%, p< 0.01"
same,"tumour outcome (control, treated, inhibition, significance)","Carcinogen: N-NITROSOMETHYLBENZYLAMINE, 937-40-6, Dose [Inhibitor]: 0, 0.4 UMOL/G IN DIET FOR 25 WK BEGINNING 2 WK PRIOR TO CARCINOGEN TREATMENT (STUDY DURATION: 25 WK), Route [Inhibitor]: ORAL, Species: RAT, Strain/Sex: F344/MALE, Target Tissue: Type of Lesion: ESOPHAGUS: TUMOR, Dose [Carcinogen]: 0.5 MG/KG BW IN 20% DMSO 1/WK FOR 15 WK","100%, 100%, 0%, not significant"
same,"tumour outcome (control, treated, inhibition, significance)","Carcinogen: N-NITROSOMETHYLBENZYLAMINE, 937-40-6, Dose [Inhibitor]: 0, 1 UMOL/G IN DIET FOR 25 WK BEGINNING 2 WK PRIOR TO CARCINOGEN TREATMENT (STUDY DURATION: 25 WK), Route [Inhibitor]: ORAL, Species: RAT, Strain/Sex: F344/MALE, Target Tissue: Type of Lesion: ESOPHAGUS: TUMOR, Dose [Carcinogen]: 0.5 MG/KG BW IN 20% DMSO 1/WK FOR 15 WK","100%, 100%, 0%, not significant"
same,"tumour outcome (control, treated, inhibition, significance)","Carcinogen: N-NITROSOMETHYLBENZYLAMINE, 937-40-6, Dose [Inhibitor]: 0, 2.5 UMOL/G IN DIET FOR 25 WK BEGINNING 2 WK PRIOR TO CARCINOGEN TREATMENT (STUDY DURATION: 25 WK), Route [Inhibitor]: ORAL, Species: RAT, Strain/Sex: F344/MALE, Target Tissue: Type of Lesion: ESOPHAGUS: TUMOR, Dose [Carcinogen]: 0.5 MG/KG BW IN 20% DMSO 1/WK FOR 15 WK","100%, 100%, 0%, not significant"
